Earlier results, collected in US10632083B2, “Ophthalmic compositions” (SaCSh Corp., priority 2016, dated 2020).

SMILES: [H]/N=C(\N/C(=N/[H])NCCCCCCNC(=N)NC(=N)Nc1ccc(Cl)cc1)Nc1ccc(Cl)cc1 [chlorhexidine, N,N″″1,6-Hexanediylbis[N′-(4-chlorophenyl)(imidodicarbonimidic diamide)]]
- eye damage after topical chlorhexidine accidentally got into the eyes (Tabor et al. 1989, four cases): irreversible corneal damage
- eye damage after accidental application to patients undergoing eye surgery (van Rij et al. 1995, led to bullous keratopathy, all affected patients required corneal transplant): immediate corneal edema
